Target: T1, human β-secretase (Homo sapiens, UniProt P56817)
T1 construct: The soluble part of the human β-secretase (AA 1-AA 460) was cloned; made in house
Assay: TR-FRET assay (β-secretase enzyme, sBACE-Fc)
Type: biochemical
Conditions: not given
Experimental: The enzyme used in the IGEN Cleavage-, Fluorescent-, TR-FRET- and BiaCore assays is described as follows:
The soluble part of the human β-secretase (AA 1-AA 460) was cloned into the ASP2-F10-1-IRES-GFP-neoK mammalian expression vector. The gene was fused to the Fc domain of IgG1 (affinity tag) and stably cloned into HEK 293 cells. Purified sBACE-Fc is stored in Tris buffer, pH 9.2 and has a purity of 95%.
Enzyme was diluted to 6 μg/mL and the substrate (Europium)[…](Qsy7) to 200 nM in reaction buffer (NaAcetate, chaps, triton x-100, EDTA pH 4.5). Compounds were diluted to the desired concentration in dimethyl sulfoxide (final dimethyl sulfoxide concentration in assay is 5%). […] Enzyme (9 μL) and 1 μL of compound in dimethyl sulfoxide was added to the plate, mixed and pre-incubated for 10 min. Substrate (10 μL) was added and the reaction proceeded in the dark for 15 min at RT. The reaction was stopped with the addition of 7 μL NaAcetate, pH 9. […] The dimethyl sulfoxide control defined the 100% activity level and 0% activity was defined by exclusion of the enzyme (using reaction buffer instead).

T1 sequence (P56817 22-460): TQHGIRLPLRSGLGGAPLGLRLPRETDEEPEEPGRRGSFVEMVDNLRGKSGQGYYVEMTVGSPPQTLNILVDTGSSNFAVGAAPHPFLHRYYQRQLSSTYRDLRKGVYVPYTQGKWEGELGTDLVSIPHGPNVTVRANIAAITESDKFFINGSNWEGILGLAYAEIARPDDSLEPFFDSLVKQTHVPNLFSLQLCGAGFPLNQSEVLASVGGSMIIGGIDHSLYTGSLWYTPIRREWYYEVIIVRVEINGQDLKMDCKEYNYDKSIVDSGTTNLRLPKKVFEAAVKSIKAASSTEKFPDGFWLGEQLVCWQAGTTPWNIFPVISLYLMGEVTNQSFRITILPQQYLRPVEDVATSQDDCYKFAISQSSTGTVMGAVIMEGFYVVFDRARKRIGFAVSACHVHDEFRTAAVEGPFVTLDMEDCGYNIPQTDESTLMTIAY

| Molecule | IC50 [nM] |
| --- | --- |
| COc1ccc(C2(c3cccc(-c4cc(OC)cc(OS(C)(=O)=O)c4)c3)N=C(N)N3CCN=C32)cc1 (stereo not shown) [Example 73, 3′-[5-Amino-7-(4-methoxyphenyl)-2,7-dihydro-3H-imidazo[1,5-a]imidazol-7-yl]-5-methoxybiphenyl-3-yl methanesulfonate acetate] | 190 |

Same assay, conditions: read-out: IC50 in TR-FRET assay

| Molecule | IC50 [nM] |
| --- | --- |
| CS(=O)(=O)Oc1ccc(C2(c3cccc(-c4cnccn4)c3)N=C(N)N3CCCN=C32)cc1 (stereo not shown) [Example 32, 4-[6-Amino-8-(3-pyrazin-2-ylphenyl)-2,3,4,8-tetrahydroimidazo[1,5-a]pyrimidin-8-yl]phenyl methanesulfonate acetate] | 501 |
| CS(=O)(=O)Oc1ccc(C2(c3cccc(-c4cncc(F)c4)c3)N=C(N)N3CCCN=C32)cc1 (stereo not shown) [Example 33, 4-{6-Amino-8-[3-(5-fluoropyridin-3-yl)phenyl]-2,3,4,8-tetrahydroimidazo[1,5-a]pyrimidin-8-yl}phenyl methanesulfonate acetate] | 397 |
| CS(=O)(=O)Oc1ccc(C2(c3cccc(-c4cccc(OC(F)(F)F)c4)c3)N=C(N)N3CCCN=C32)cc1 (stereo not shown) [Example 41, 4-{6-Amino-8-[3′-(trifluoromethoxy)biphenyl-3-yl]-2,3,4,8-tetrahydroimidazo[1,5-a]pyrimidin-8-yl}phenyl methanesulfonate 0.5 acetate] | 981 |
| CCOc1cccc(-c2cccc(C3(c4ccc(OS(C)(=O)=O)cc4)N=C(N)N4CCCN=C43)c2)c1 (stereo not shown) [Example 44, 4-[6-Amino-8-(3′-ethoxybiphenyl-3-yl)-2,3,4,8-tetrahydroimidazo[1,5-a]pyrimidin-8-yl]phenyl methanesulfonate 0.5 acetate] | 471 |
| CCCS(=O)(=O)Oc1ccc(C2(c3cccc(-c4cnccn4)c3)N=C(N)N3CCCN=C32)cc1 (stereo not shown) [Example 54, 4-[6-Amino-8-(3-pyrazin-2-ylphenyl)-2,3,4,8-tetrahydroimidazo[1,5-a]pyrimidin-8-yl]phenyl propane-1-sulfonate acetate] | 347 |
| CCCS(=O)(=O)Oc1ccc(C2(c3cccc(-c4cccc(C(F)(F)F)c4)c3)N=C(N)N3CCCN=C32)cc1 (stereo not shown) [Example 60, 4-{6-Amino-8-[3′-(trifluoromethyl)biphenyl-3-yl]-2,3,4,8-tetrahydroimidazo[1,5-a]pyrimidin-8-yl}phenyl propane-1-sulfonate 0.5 acetate] | 493 |
| CCCS(=O)(=O)Oc1ccc(C2(c3cccc(-c4ccc(F)c(OC)c4)c3)N=C(N)N3CCCN=C32)cc1 (stereo not shown) [Example 61, 4-[6-Amino-8-(4′-fluoro-3′-methoxybiphenyl-3-yl)-2,3,4,8-tetrahydroimidazo[1,5-a]pyrimidin-8-yl]phenyl propane-1-sulfonate 0.75 acetate] | 671 |
| CCCS(=O)(=O)Oc1ccc(C2(c3cccc(-c4cc(Cl)ccc4Cl)c3)N=C(N)N3CCCN=C32)cc1 (stereo not shown) [Example 63, 4-[6-Amino-8-(2′,5′-dichlorobiphenyl-3-yl)-2,3,4,8-tetrahydroimidazo[1,5-a]pyrimidin-8-yl]phenyl propane-1-sulfonate 0.75 acetate] | 912 |
| NC1=NC(c2ccc(OS(=O)(=O)C3CC3)cc2)(c2cccc(-c3cccnc3F)c2)C2=NCCCN12 (stereo not shown) [Example 69, 4-{6-Amino-8-[3-(2-fluoropyridin-3-yl)phenyl]-2,3,4,8-tetrahydroimidazo[1,5-a]pyrimidin-8-yl}phenyl cyclopropane sulfonate 0.75 acetate] | 313 |
| NC1=NC(c2ccc(OS(=O)(=O)C3CC3)cc2)(c2cccc(-c3cccc(C(F)(F)F)c3)c2)C2=NCCCN12 (stereo not shown) [Example 70, 4-{6-Amino-8-[3′-(trifluoromethyl)biphenyl-3-yl]-2,3,4,8-tetrahydroimidazo[1,5-a]pyrimidin-8-yl}phenyl cyclopropane sulfonate 0.75 acetate] | 620 |
| NC1=NC(c2ccc(OS(=O)(=O)C3CC3)cc2)(c2cccc(-c3cccc(Cl)c3F)c2)C2=NCCCN12 (stereo not shown) [Example 71, 4-[6-Amino-8-(3′-chloro-2′-fluorobiphenyl-3-yl)-2,3,4,8-tetrahydroimidazo[1,5-a]pyrimidin-8-yl]phenyl cyclopropane sulfonate 0.75 acetate] | 390 |
| NC1=NC(c2ccc(OS(=O)(=O)C3CC3)cc2)(c2cccc(-c3cc(Cl)ccc3Cl)c2)C2=NCCCN12 (stereo not shown) [Example 72, 4-[6-Amino-8-(2′,5′-dichlorobiphenyl-3-yl)-2,3,4,8-tetrahydroimidazo[1,5-a]pyrimidin-8-yl]phenyl cyclopropane sulfonate 0.5 acetate] | 644 |
| COc1cccc(-c2cccc(C3(c4ccc(OS(C)(=O)=O)cc4)N=C(N)N4CCN=C43)c2)c1 (stereo not shown) [Example 74, 4-[5-Amino-7-(3′-methoxybiphenyl-3-yl)-2,7-dihydro-3H-imidazo[1,5-a]imidazol-7-yl]phenyl methanesulfonate 0.25 acetate] | 449 |
| CS(=O)(=O)Oc1ccc(C2(c3cccc(-c4cccnc4)c3)N=C(N)N3CCN=C32)cc1 (stereo not shown) [Example 77, 4-[5-Amino-7-(3-pyridin-3-ylphenyl)-2,7-dihydro-3H-imidazo[1,5-a]imidazol-7-yl]phenyl methanesulfonate 0.5 acetate] | 1530 |

Second part, the molecule after the results:

| IC50 [nM] | Molecule |
| --- | --- |
| 146 | 4-[5-Amino-7-(3′,5′-dichlorobiphenyl-3-yl)-2,7-dihydro-3H-imidazo[1,5-a]imidazol-7-yl]phenyl methanesulfonate 0.25 acetate [Example 75] |
| 156 | COc1cccc(-c2cccc(C3(c4ccc(OS(C)(=O)=O)cc4)N=C(N)N4CCCN=C43)c2)c1 (stereo not shown) [Example 31, 4-[6-Amino-8-(3′-methoxybiphenyl-3-yl)-2,3,4,8-tetrahydroimidazo[1,5-a]pyrimidin-8-yl]phenyl methanesulfonate acetate] |
| 161 | COc1cncc(-c2cccc(C3(c4ccc(OS(C)(=O)=O)cc4)N=C(N)N4CCCN=C43)c2)c1 (stereo not shown) [Example 34, 4-{6-Amino-8-[3-(5-methoxypyridin-3-yl)phenyl]-2,3,4,8-tetrahydroimidazo[1,5-a]pyrimidin-8-yl}phenyl methanesulfonate acetate] |
| 43 | COc1ccc(C2(c3cccc(-c4cc(OC)cc(OS(C)(=O)=O)c4)c3)N=C(N)N3CCCN=C32)cc1 (stereo not shown) [Example 52, 3′-[6-Amino-8-(4-methoxyphenyl)-2,3,4,8-tetrahydroimidazo[1,5-a]pyrimidin-8-yl]-5-methoxybiphenyl-3-yl methanesulfonate acetate] |
| 139 | CCCS(=O)(=O)Oc1ccc(C2(c3cccc(-c4cccc(OC)c4)c3)N=C(N)N3CCCN=C32)cc1 (stereo not shown) [Example 55, 4-[6-Amino-8-(3′-methoxybiphenyl-3-yl)-2,3,4,8-tetrahydroimidazo[1,5-a]pyrimidin-8-yl]phenyl propane-1-sulfonate 0.75 acetate] |
| 71 | CCCS(=O)(=O)Oc1ccc(C2(c3cccc(-c4cccc(Cl)c4)c3)N=C(N)N3CCCN=C32)cc1 (stereo not shown) [Example 57, 4-[6-Amino-8-(3′-chlorobiphenyl-3-yl)-2,3,4,8-tetrahydroimidazo[1,5-a]pyrimidin-8-yl]phenyl propane-1-sulfonate 0.75 acetate] |
| 221 | CCCS(=O)(=O)Oc1ccc(C2(c3cccc(-c4cccnc4F)c3)N=C(N)N3CCCN=C32)cc1 (stereo not shown) [Example 59, 4-{6-Amino-8-[3-(2-fluoropyridin-3-yl)phenyl]-2,3,4,8-tetrahydroimidazo[1,5-a]pyrimidin-8-yl}phenyl propane-1-sulfonate acetate] |
| 254 | CCCS(=O)(=O)Oc1ccc(C2(c3cccc(-c4cccc(Cl)c4F)c3)N=C(N)N3CCCN=C32)cc1 (stereo not shown) [Example 62, 4-[6-Amino-8-(3′-chloro-2′-fluorobiphenyl-3-yl)-2,3,4,8-tetrahydroimidazo[1,5-a]pyrimidin-8-yl]phenyl propane-1-sulfonate 0.75 acetate] |
| 96 | CCCS(=O)(=O)Oc1ccc(C2(c3cccc(-c4cncc(OC)c4)c3)N=C(N)N3CCCN=C32)cc1 (stereo not shown) [Example 64, 4-{6-Amino-8-[3-(5-methoxypyridin-3-yl)phenyl]-2,3,4,8-tetrahydroimidazo[1,5-a]pyrimidin-8-yl}phenyl propane-1-sulfonate 0.75 acetate] |
| 248 | COc1cccc(-c2cccc(C3(c4ccc(OS(=O)(=O)C5CC5)cc4)N=C(N)N4CCCN=C43)c2)c1 (stereo not shown) [Example 65, 4-[6-Amino-8-(3′-methoxybiphenyl-3-yl)-2,3,4,8-tetrahydroimidazo[1,5-a]pyrimidin-8-yl]phenyl cyclopropane sulfonate 0.75 acetate] |
| 66 | NC1=NC(c2ccc(OS(=O)(=O)C3CC3)cc2)(c2cccc(-c3cc(Cl)cc(Cl)c3)c2)C2=NCCCN12 (stereo not shown) [Example 66, 4-[6-Amino-8-(3′,5′-dichlorobiphenyl-3-yl)-2,3,4,8-tetrahydroimidazo[1,5-a]pyrimidin-8-yl]phenyl cyclopropanesulfonate 0.75 acetate] |
| 61 | NC1=NC(c2ccc(OS(=O)(=O)C3CC3)cc2)(c2cccc(-c3cccc(Cl)c3)c2)C2=NCCCN12 (stereo not shown) [Example 67, 4-[6-Amino-8-(3′-chlorobiphenyl-3-yl)-2,3,4,8-tetrahydroimidazo[1,5-a]pyrimidin-8-yl]phenyl cyclopropane sulfonate 0.75 acetate] |
| 226 | CS(=O)(=O)Oc1ccc(C2(c3cccc(-c4cccc(Cl)c4)c3)N=C(N)N3CCN=C32)cc1 (stereo not shown) [Example 76, 4-[5-Amino-7-(3′-chlorobiphenyl-3-yl)-2,7-dihydro-3H-imidazo[1,5-a]imidazol-7-yl]phenyl methanesulfonate 0.5 acetate] |
